Laboratory results published in US7528138B2, “Pyrazolo[1,5-a]pyrimidines useful as inhibitors of protein kinases” (Vertex Pharmaceuticals Incorporated, priority 2004, dated 2009).

Legend:
Itk = target: T1, Itk (Homo sapiens, UniProt Q08881); test: ITK Inhibition Assay (Radiometric), radioactive-phosphate incorporation; assay type: biochemical; conditions: enzyme inhibition data (Ki), Table 11; radiometric or UV assay not stated
T1 sequence (Q08881 1-620): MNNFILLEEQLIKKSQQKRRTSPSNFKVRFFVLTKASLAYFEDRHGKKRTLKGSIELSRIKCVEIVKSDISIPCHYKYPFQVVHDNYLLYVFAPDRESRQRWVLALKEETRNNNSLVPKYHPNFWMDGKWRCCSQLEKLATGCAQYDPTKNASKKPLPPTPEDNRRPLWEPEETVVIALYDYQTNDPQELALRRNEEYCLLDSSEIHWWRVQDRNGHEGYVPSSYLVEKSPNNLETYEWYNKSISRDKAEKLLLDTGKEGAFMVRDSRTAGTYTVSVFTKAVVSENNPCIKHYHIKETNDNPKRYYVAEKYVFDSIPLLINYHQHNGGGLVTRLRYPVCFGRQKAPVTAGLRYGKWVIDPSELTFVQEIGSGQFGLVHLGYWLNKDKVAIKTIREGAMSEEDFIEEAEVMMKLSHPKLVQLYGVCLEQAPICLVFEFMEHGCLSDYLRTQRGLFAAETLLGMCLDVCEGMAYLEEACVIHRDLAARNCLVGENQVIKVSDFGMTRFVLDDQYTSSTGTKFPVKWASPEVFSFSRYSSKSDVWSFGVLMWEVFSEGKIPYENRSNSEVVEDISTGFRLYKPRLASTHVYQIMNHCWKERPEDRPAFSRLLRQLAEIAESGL
Procedure, shortened: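 Radiometric 33P incorporation into SAM68 peptide (D332-443) with filter capture and scintillation counting; 10 min pre-incubation then 10 min reaction at 25° C. IC50 format: 30 nM Itk, 15 μM ATP, 2 μM peptide, HEPES pH 7.5. Ki(app) format: 50 nM Itk, 7.5 μM ATP, 3 μM peptide, MOPS pH 7.0.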

JAK3 = target: T2, JAK3 (Homo sapiens, UniProt P52333); test: JAK3 Inhibition Assay, 33P incorporation; assay type: biochemical; conditions: enzyme inhibition data (Ki), Table 11
T2 sequence (P52333 1-1124): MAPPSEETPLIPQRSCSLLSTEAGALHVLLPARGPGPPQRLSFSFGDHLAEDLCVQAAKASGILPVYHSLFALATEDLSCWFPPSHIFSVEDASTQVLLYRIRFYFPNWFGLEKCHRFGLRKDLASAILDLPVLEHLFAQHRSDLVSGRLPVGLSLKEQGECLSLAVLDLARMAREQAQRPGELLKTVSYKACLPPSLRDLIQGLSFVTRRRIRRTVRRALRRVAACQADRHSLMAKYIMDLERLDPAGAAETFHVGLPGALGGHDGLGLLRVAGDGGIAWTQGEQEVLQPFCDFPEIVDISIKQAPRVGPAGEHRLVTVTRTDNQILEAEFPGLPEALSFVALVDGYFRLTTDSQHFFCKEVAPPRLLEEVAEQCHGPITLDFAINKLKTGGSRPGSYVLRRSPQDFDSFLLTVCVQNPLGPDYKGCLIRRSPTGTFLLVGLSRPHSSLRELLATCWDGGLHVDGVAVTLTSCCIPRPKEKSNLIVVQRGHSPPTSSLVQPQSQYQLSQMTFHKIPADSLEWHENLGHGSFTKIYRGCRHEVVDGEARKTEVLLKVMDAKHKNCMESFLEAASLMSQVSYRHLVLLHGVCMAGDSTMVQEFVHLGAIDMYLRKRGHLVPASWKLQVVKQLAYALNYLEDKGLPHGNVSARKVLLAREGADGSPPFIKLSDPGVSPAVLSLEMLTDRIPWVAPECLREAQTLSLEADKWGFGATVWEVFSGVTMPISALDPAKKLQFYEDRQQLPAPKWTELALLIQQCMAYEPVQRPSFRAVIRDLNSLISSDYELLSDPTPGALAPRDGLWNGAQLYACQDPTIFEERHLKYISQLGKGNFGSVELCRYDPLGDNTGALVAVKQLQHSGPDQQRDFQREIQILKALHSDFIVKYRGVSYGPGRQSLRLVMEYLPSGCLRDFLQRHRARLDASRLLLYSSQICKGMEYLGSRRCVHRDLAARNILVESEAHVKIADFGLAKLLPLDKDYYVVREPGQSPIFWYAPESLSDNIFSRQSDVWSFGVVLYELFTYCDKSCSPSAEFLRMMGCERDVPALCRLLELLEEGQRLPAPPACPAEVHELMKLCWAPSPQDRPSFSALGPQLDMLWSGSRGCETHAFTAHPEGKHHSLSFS
Procedure, shortened: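 33P incorporation into 1 μM poly(Glu)4Tyr was counted after TCA stop and glass fiber filtration. The 20 min reaction ran at 25 °C with 1 nM JAK3 and 5 μM ATP (200 uCi/μmole). Buffer was 100 mM HEPES pH 7.4, 10 mM MgCl2, 25 mM NaCl, 1 mM DTT, 0.01% BSA.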

| SMILES | Ki (Itk) [nM] | Ki (JAK3) [nM] |
| --- | --- | --- |
| CNC(=O)c1cnc2c(-c3ccccn3)c(N)nn2c1 [Compound V-204] | 500 to 5000 | > 5000 |
| Nc1nn2cc(C(=O)NC3CCCNC3)cnc2c1-c1ccccn1 (stereo not drawn) [Compound V-206] | 500 to 5000 | > 5000 |
| COc1ccc(-c2cn3nc(N)c(-c4ccccn4)c3nc2C)cc1 [Compound V-216] | 500 to 5000 | > 5000 |
| COc1ccc(-c2cnc3c(-c4ccncc4)c(N)nn3c2)cc1 [Compound V-219] | 500 to 5000 | > 5000 |
| Nc1nn2cc(-c3cccc(CO)c3)cnc2c1-c1ccccn1 [Compound V-221] | 500 to 5000 | 500 to 5000 |
| Nc1nn2cc(-c3cccc(CN4CCNCC4)c3)cnc2c1-c1ccccn1 [Compound V-223] | < 500 | 500 to 5000 |
| Nc1nn2cc(-c3cccc(CN4CCOCC4)c3)cnc2c1-c1ccccn1 [Compound V-225] | 500 to 5000 | > 5000 |
| NC1NN2C=C(c3cccc(CN4CC[C@@H](N)C4)c3)C=NC2=C1c1ccccn1 (stereo partly drawn) [Compound V-226] | < 500 | > 5000 |
| NC1NN2C=C(c3cccc(CN4CC[C@H](N)C4)c3)C=NC2=C1c1ccccn1 (stereo partly drawn) [Compound V-227] | < 500 | > 5000 |
| NC1NN2C=C(c3cccc(CN4CCCNCC4)c3)C=NC2=C1c1ccccn1 (stereo not drawn) [Compound V-228] | < 500 | > 5000 |
| NC1CCN(Cc2cccc(C3=CN4NC(N)C(c5ccccn5)=C4N=C3)c2)CC1 (stereo not drawn) [Compound V-229] | < 500 | > 5000 |
| CNCCCN(C)Cc1ccc(-c2cnc3c(-c4ccccn4)c(N)nn3c2)cc1 [Compound V-230] | < 500 | 500 to 5000 |
| Nc1nn2cc(-c3ccc(CN4CC[C@@H](N)C4)cc3)cnc2c1-c1ccccn1 [Compound V-231] | < 500 | 500 to 5000 |
| Nc1nn2cc(-c3ccc(CNC4CCNCC4)cc3)cnc2c1-c1ccccn1 [Compound V-232] | < 500 | > 5000 |
| Nc1nn2cc(-c3ccc(CN4CC[C@H](N)C4)cc3)cnc2c1-c1ccccn1 [Compound V-233] | < 500 | 500 to 5000 |
| Nc1nn2cc(-c3ccc(CN4CCC(N)CC4)cc3)cnc2c1-c1ccccn1 [Compound V-234] | < 500 | 500 to 5000 |
| CNCc1ccc(-c2cnc3c(-c4ccccn4)c(N)nn3c2)cc1 [Compound V-236] | < 500 | 500 to 5000 |
| CC(C)(O)C#Cc1cnc2c(-c3ccccn3)c(N)nn2c1 [Compound V-237] | < 500 | 500 to 5000 |
| Nc1nn2cc(C#CCO)cnc2c1-c1ccccn1 [Compound V-238] | 500 to 5000 | 500 to 5000 |
| Nc1nn2cc(-c3ccncc3)cnc2c1-c1cc(Nc2ccccc2)ncn1 [Compound V-241] | < 500 | < 500 |
| COc1ccccc1Nc1cc(-c2c(N)nn3cc(-c4ccncc4)cnc23)ncn1 [Compound V-242] | < 500 | < 500 |
| CC(C)CN(C)c1cc(-c2c(N)nn3cc(-c4ccncc4)cnc23)ncn1 [Compound V-243] | < 500 | < 500 |
| CCCN(CC)c1cc(-c2c(N)nn3cc(-c4ccncc4)cnc23)ncn1 [Compound V-244] | < 500 | < 500 |

More lines, now with the values ahead:

| Ki (Itk) [nM] | Ki (JAK3) [nM] | SMILES |
| --- | --- | --- |
| < 500 | 500 to 5000 | CNCCCN(C)C(=O)c1ccc(-c2cnc3c(-c4ccccn4)c(N)nn3c2)cc1 [Compound V-191] |
| < 500 | 500 to 5000 | Nc1nn2cc(-c3ccc(CO)cc3)cnc2c1-c1ccccn1 [Compound V-194] |
| < 500 | 500 to 5000 | NCc1ccc(-c2cnc3c(-c4ccccn4)c(N)nn3c2)cc1 [Compound V-195] |
| < 500 | > 5000 | NCc1cccc(-c2cnc3c(-c4ccccn4)c(N)nn3c2)c1 [Compound V-202] |
| < 500 | 500 to 5000 | Nc1nn2cc(-c3ccc(CN4CCOCC4)cc3)cnc2c1-c1ccccn1 [Compound V-208] |
| < 500 | > 5000 | Nc1nn2cc(-c3ccc4[nH]ccc4c3)cnc2c1-c1ccccn1 [Compound V-212] |
| < 500 | 500 to 5000 | CN(C)Cc1ccc(-c2cnc3c(-c4ccccn4)c(N)nn3c2)cc1 [Compound V-214] |
| < 500 | > 5000 | CN(C)Cc1cccc(-c2cnc3c(-c4ccccn4)c(N)nn3c2)c1 [Compound V-215] |
| < 500 | 500 to 5000 | Nc1nn2cc(-c3ccc(CN4CCNCC4)cc3)cnc2c1-c1ccccn1 [Compound V-217] |
| < 500 | 500 to 5000 | Nc1nn2cc(-c3cccc(N4CCNCC4)c3)cnc2c1-c1ccccn1 [Compound V-222] |
